The assay has as its target T1, JAK3 (Homo sapiens, UniProt P52333).
T1 sequence (P52333 1-1124): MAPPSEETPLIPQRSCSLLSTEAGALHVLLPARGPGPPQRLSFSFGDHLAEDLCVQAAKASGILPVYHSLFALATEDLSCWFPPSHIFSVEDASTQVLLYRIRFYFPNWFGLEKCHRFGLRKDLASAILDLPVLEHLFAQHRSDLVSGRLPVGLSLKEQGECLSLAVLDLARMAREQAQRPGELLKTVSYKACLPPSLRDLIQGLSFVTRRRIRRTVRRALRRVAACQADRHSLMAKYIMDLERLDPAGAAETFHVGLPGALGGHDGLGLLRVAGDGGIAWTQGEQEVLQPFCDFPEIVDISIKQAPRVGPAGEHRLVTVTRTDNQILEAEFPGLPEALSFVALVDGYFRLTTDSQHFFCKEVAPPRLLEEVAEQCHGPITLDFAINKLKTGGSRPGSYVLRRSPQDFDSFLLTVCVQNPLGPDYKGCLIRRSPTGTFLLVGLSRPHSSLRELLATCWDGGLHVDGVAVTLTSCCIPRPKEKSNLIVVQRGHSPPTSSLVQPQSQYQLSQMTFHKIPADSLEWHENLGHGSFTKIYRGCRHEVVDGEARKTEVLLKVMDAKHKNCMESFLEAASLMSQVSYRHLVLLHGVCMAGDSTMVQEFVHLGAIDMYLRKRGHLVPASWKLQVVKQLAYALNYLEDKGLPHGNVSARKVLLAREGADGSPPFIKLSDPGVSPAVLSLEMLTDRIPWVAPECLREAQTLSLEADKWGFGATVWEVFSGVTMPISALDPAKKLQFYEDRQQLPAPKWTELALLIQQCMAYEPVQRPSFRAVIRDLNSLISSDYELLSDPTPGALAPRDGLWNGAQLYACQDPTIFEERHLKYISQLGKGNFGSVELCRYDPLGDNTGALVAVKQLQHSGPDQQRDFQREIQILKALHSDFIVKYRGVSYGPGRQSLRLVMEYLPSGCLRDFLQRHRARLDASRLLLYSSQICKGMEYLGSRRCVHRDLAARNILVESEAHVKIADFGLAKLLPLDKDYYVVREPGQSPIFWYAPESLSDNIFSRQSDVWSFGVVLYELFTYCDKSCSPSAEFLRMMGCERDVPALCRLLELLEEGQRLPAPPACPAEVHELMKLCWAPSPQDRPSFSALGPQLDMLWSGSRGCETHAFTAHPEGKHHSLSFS
The assay is described as follows: JAK3 Inhibition Assay (33P incorporation into poly(Glu)4Tyr). The format is biochemical. As to conditions: for Ki: 1 nM JAK3, 5 μM ATP, 1 μM poly(Glu)4Tyr, 25° C. How it is done:
Compounds were screened for their ability to inhibit JAK3 using the assay shown below. Reactions were carried out in a kinase buffer containing 100 mM HEPES (pH 7.4), 1 mM DTT, 10 mM MgCl2, 25 mM NaCl, and 0.01% BSA. Substrate concentrations in the assay were 5 μM ATP (200 uCi/μmole ATP) and 1 μM poly(Glu)4Tyr. Reactions were carried out at 25° C. and 1 nM JAK3.
To each well of a 96 well polycarbonate plate was added 1.5 μl of a candidate JAK3 inhibitor along with 50 μlof kinase buffer containing 2 μM poly(Glu)4Tyr and 10 μM ATP. This was then mixed and 50 μl of kinase buffer containing 2 nM JAK3 enzyme was added to start the reaction. After 20 minutes at room temperature (25° C.), the reaction was stopped with 50 μl of 20% trichloroacetic acid (TCA) that also contained 0.4 mM ATP. The entire contents of each well were then transferred to a 96 well glass fiber filter plate using a TomTek Cell Harvester. After washing, 60 μl of scintillation fluid was added and ^33P incorporation detected on a Perkin Elmer TopCount.

With `Nc1nc(NC2CCCCC2)nn1-c1ncc(F)c(N2CCC[C@@H]2C(=O)NCC(F)(F)F)n1` [Compound 47], the “inhibition of JAK3 at concentrations of 5.0 μM” value (at concentrations of 5.0 μM) is listed as “did not inhibit”.

On to `C[C@H](Nc1nc(-c2cccnc2N)ncc1F)C(=O)NCC(F)(F)F` [Compound 27], for which the Ki was 1 to 10 µM.

Consider `COc1ccc(-c2nccc(N[C@@H](C(=O)NCC(F)(F)F)C(C)C)n2)cn1` [Compound 70], for which the “inhibition of JAK3 at concentrations of 50 μM” value (“inhibition of JAK3 … of 50 μM” for short) is on record as “did not inhibit”.

Consider `CC(C)(Nc1nc(-c2ccc3c(c2)OCCO3)ncc1F)C(=O)NCC(F)(F)F` [Compound 125], for which the “inhibition of JAK3 … of 50 μM” value is “did not inhibit”.

The compound `CC(C)[C@@H](Nc1ccnc(-c2ccc3ncsc3c2)n1)C(=O)NCC(F)(F)F` [Compound 148] displayed a Ki of at most 1 µM.

`C[C@H](Nc1nc(-c2cccnc2)ncc1F)C(=O)NCC(F)(F)F` [Compound 4] gave an inhibition constant (Ki) of 1 to 10 µM.

Consider `O=C(NCC(F)(F)F)[C@@H]1CCCN1c1nc(-c2cccnc2F)ncc1F` [Compound 24], for which the “inhibition of JAK3 … of 50 μM” value is on record as “did not inhibit”.

For `CC(C)(Nc1nc(-c2c[nH]c3ccc(Cl)cc23)ncc1F)C(=O)NCC(F)(F)F` [Compound 156], the inhibitory constant (Ki) was in the range of 1 to 10 µM.

Regarding `O=C(NCC1CC1)c1cc(-c2ncc(F)c(N3CCC[C@@H]3C(=O)NCC(F)(F)F)n2)c[nH]1` [Compound 118], the Ki lay within 10 to 50 µM.

Take `CC(C)(Nc1ccnc(-c2ccc3nc(N)sc3c2)n1)C(=O)NCC(F)(F)F` [Compound 79]: the Ki lay within 1 to 10 µM.

Consider `CC(C)[C@@H](Nc1ccnc(-c2c[nH]c(C(=O)O)c2)n1)C(=O)NCC(F)(F)F` [Compound 134], for which the “inhibition of JAK3 … of 50 μM” value is “did not inhibit”.

Regarding `C[C@H](Nc1nc(-c2cccnc2Cl)ncc1F)C(=O)NCC(F)(F)F` [Compound 5], the “inhibition of JAK3 … of 50 μM” value was “did not inhibit”.

The compound `O=C(NCC(F)(F)F)[C@H]1CCCN1c1ccnc(-c2c[nH]c(C(=O)N3CCCC3)c2)n1` [Compound 130] had an inhibition constant (Ki) of 1 to 10 µM.

On to `COc1ccc(-c2nccc(NC(C)(C)C(=O)NCC(F)(F)F)n2)cn1` [Compound 80], for which the Ki was in the range of 10 to 50 µM.

In turn, `CC(C)(Nc1nc(-c2c[nH]c(C(=O)O)c2)ncc1F)C(=O)NCC(F)(F)F` [Compound 133] gave a Ki of 1 to 10 µM.

As to `CC(C)(Nc1ccnc(-c2c[nH]c(C(=O)O)c2)n1)C(=O)NCC(F)(F)F` [Compound 128], the “inhibition of JAK3 … of 50 μM” value is on record as “did not inhibit”.

The compound `O=C(NCC(F)(F)F)[C@H]1CCCN1c1nc(-c2ccc3nccnc3c2)ncc1F` [Compound 165] registered a Ki of 10 to 50 µM.

Consider `CC(C)[C@@H](Nc1ccnc(-c2ccc3nccnc3c2)n1)C(=O)NCC(F)(F)F` [Compound 164], for which the Ki was in the range of 1 to 10 µM.

For the compound `CC(C)[C@@H](Nc1ccnc(-c2c[nH]c(=O)c(N)c2)n1)C(=O)NCC(F)(F)F` [Compound 135], the Ki is 10 to 50 µM.

For `CC(C)NC(=O)c1cc(-c2ncc(F)c(N[C@@H](C(=O)NCC(F)(F)F)C(C)C)n2)c[nH]1` [Compound 105], the “inhibition of JAK3 … of 50 μM” value is “did not inhibit”.

With `CC(C)[C@H](Nc1ccnc(-c2cccnc2N)n1)C(=O)NCC(F)(F)F` [Compound 28], the Ki is 1 to 10 µM.

`CC(C)(Nc1ccnc(-c2ccc(O)cc2)n1)C(=O)NCC(F)(F)F` [Compound 144] displayed a Ki of at most 1 µM.

`CCNC(=O)c1cc(-c2ncc(F)c(NC(C)(C)C(=O)NCC(F)(F)F)n2)c[nH]1` [Compound 93] registered an inhibitory constant (Ki) of 1 to 10 µM.

For the compound `COc1ccc(-c2nccc(N[C@@H](C(=O)NCC(F)(F)F)C(C)C)n2)cc1` [Compound 143], the “inhibition of JAK3 … of 50 μM” value is “did not inhibit”.

In turn, `O=C(NCC(F)(F)F)[C@H]1CCCN1c1nc(-c2c[nH]c(C(=O)N3CCCC3)c2)ncc1F` [Compound 119] came in with a Ki of 1 to 10 µM.

Consider `CC(C)(Nc1nc(-c2ccc(O)cc2)ncc1F)C(=O)NCC(F)(F)F` [Compound 123], for which the Ki was at most 1 µM.

`CC(=O)Nc1nc2ccc(-c3nccc(N4CCC[C@@H]4C(=O)NCC(F)(F)F)n3)cc2s1` [Compound 63]: the inhibitory constant (Ki) was in the range of 10 to 50 µM.

A word on the Ki: it is the equilibrium dissociation constant of an inhibitor or competing ligand from its target. Read a high Ki as weaker binding.
